Our source for the IC50 and inhibition values is patent US10689362B2, “Quinoxaline compounds as type III receptor tyrosine kinase inhibitors” (Development Center for Biotechnology, priority 2016, dated 2020).

In one assay the target is FLT3 kinase (Homo sapiens (Human), UniProt P36888). Put plainly: FLT3 kinase assay (radiometric). It counts as biochemical. The following applies: bound. The method in brief:
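Recombinant FLT3 (5 ng) phosphorylating poly(Glu4:Tyr1) (2 μg) with 10 μM ATP plus [^33P]-ATP in MOPS pH 7.0 buffer, 4% DMSO final, 60 min at 30° C. Reaction stopped with phosphoric acid, filter-captured and scintillation-counted; IC50 derived from dose-response.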

Assay [1] has as its system MV4-11 human acute myeloid leukemia cell with FLT3-ITD mutation. In words: MV4-11 cell proliferation assay (CellTiter-96). The class given is cell-based. The following applies: Cytotoxicity, MV4-11 cells, 72 hours. The method in brief:
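Growth inhibition read as absorbance at 490 nm after 4 hours with CellTiter96 AQueous One reagent. Before that, FLT3-ITD-dependent MV4-11 cells (6500 cells/well, overnight at 37° C., 5% CO2) received a rising compound concentration series for 72 hours.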

In the next assay the target is PDGFRβ kinase (Homo sapiens (Human), UniProt P09619). In words: PDGFRβ kinase assay (radiometric). The following applies: bound. The class given is biochemical. The method in brief:
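Radiometric assay: recombinant PDGFRβ with poly(Glu4:Tyr1) in MOPS pH 7.0 buffer containing Mg2+/Mn2+, 10 μM ATP plus [33P]-ATP, and compound at 4% DMSO final. Incubated 60 min at 30° C, stopped with phosphoric acid, filter-captured and scintillation-counted. IC50 from curve fitting.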

Another assay deals with CSF-1R kinase (Homo sapiens (Human), UniProt P07333). In words: CSF-1R kinase assay (AlphaScreen). The class given is biochemical. The following applies: class symbol. As for the experimental part: Inhibition of CSF-1R kinase activity by a test compound disclosed herein was estimated by AlphaScreen (PerkinElmer). […] Reactions were incubated at 30° C. for 45 min and stopped by adding 5 μL of 50 mM EDTA. Analysis of resulting product using an AlphaScreen kit, and counted with Enspire Alpha (PerkinElmer). […] The IC50 values of quinoxaline compounds of this invention against CSF-1R kinase were determined using the GraphPad Prism 5 software.
Sequence of CSF-1R kinase (P07333 20-972): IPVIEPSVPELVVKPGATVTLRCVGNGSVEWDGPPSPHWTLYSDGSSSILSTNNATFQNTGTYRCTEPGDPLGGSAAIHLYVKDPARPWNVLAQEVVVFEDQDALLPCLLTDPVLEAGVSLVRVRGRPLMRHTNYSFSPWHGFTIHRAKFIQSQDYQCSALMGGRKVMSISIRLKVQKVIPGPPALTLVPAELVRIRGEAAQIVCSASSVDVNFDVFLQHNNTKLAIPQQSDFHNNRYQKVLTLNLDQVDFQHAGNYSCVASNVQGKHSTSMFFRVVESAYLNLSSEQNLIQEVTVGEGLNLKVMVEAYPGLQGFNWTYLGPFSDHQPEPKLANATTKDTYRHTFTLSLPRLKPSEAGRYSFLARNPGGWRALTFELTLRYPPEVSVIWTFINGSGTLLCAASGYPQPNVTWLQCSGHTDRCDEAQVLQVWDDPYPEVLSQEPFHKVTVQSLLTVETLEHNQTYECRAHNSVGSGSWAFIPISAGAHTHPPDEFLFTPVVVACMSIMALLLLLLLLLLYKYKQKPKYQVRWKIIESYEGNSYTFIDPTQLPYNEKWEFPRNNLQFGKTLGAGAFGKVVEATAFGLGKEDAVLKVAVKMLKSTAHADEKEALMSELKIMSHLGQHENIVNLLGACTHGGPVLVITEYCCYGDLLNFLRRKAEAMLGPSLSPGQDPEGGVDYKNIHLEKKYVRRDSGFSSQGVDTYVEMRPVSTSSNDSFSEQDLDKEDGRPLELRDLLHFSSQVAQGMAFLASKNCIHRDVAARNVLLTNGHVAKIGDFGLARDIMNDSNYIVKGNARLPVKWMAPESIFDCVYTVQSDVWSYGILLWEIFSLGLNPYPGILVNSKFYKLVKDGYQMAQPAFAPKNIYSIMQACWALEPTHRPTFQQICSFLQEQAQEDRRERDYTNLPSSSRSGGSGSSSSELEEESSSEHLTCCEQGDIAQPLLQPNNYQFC
(In Alpha technology, singlet oxygen from a donor bead excites a nearby acceptor bead.)

In assay [2] the test system is Kasumi-1 human acute myeloid leukemia cell with c-KIT N822K activating mutation. In words: Kasumi-1 cell proliferation assay (CellTiter-96). It counts as cell-based. The following applies: Cytotoxicity, Kasumi-1 cells, 72 hours. Put shortly:
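After 72 h of treatment with a compound dilution series, growth of c-KIT N822K-driven Kasumi-1 cells (64000 per well, plated the day before) was read as 490 nm absorbance. This followed a 4 h incubation with CellTiter96 AQueous One reagent.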

The target in a further assay is c-KIT kinase (Homo sapiens (Human), UniProt P10721). Put plainly: c-KIT kinase assay (radiometric). The class given is biochemical. The following applies: class symbol. Put shortly: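 Recombinant c-Kit (20 ng) with 2 μg Poly-(Glu4:Tyr1) in MOPS pH 7.0 buffer with MgCl2/MnCl2, 10 μM ATP plus [^33P]-ATP, 4% DMSO final, 60 min at 30° C. Stopped with phosphoric acid, filter-captured and scintillation counted; IC50 from curve fit.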
Sequence of c-KIT kinase (P10721 26-976): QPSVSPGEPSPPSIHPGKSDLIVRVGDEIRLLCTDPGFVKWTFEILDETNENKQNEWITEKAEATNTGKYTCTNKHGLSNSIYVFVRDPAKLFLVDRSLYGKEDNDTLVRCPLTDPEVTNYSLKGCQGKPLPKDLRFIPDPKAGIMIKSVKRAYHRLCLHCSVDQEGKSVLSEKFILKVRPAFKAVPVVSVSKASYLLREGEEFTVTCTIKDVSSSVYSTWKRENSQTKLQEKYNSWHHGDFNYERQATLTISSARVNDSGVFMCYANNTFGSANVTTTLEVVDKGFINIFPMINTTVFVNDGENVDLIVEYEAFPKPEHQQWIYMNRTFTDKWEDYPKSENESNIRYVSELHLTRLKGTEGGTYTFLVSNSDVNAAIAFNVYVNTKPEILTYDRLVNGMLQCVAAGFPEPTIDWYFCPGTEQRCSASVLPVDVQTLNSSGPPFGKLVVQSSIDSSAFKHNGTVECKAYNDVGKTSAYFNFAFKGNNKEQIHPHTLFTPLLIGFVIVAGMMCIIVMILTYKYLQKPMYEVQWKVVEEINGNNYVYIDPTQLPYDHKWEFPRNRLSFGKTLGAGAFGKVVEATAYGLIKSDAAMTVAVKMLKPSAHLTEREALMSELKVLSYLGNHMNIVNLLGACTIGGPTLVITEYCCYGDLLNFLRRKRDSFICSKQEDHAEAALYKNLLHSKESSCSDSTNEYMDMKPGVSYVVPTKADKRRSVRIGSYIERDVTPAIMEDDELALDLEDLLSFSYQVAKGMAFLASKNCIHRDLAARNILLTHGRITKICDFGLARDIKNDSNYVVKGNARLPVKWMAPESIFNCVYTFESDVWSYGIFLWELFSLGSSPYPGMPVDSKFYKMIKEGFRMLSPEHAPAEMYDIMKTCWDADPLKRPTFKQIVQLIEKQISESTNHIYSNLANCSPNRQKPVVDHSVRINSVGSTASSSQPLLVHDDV

Assay [3] concerns THP-1 human acute monocytic leukemia cell harboring NRAS G12D mutation. Put plainly: THP-1 cell proliferation assay (counter screen, CellTiter-96). It counts as cell-based. The settings on record: Cytotoxicity, THP-1 cells (counter screen), 72 hours. The method in brief: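 Growth inhibition read as 490 nm absorbance after 4 h with CellTiter96 AQueous One reagent, following 72 h compound exposure at rising concentrations. THP-1 (NRAS G12D) cells plated at 5000 per well and left overnight at 37 °C, 5% CO2 before dosing.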
On the technique in general: The purpose of a counterscreen is to sort out artefacts and off-target activity.

For assay [4], the system named is osteoclast precursors (osteoclast differentiation). Put plainly: Osteoclast tartrate-resistant acid phosphatase assay. It counts as cell-based. The settings on record: 168 h, at 1 μM treatment, 7 days, RANKL and M-CSF, read-out: inhibition activity against osteoclast differentiation. Put shortly: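 Differentiation inhibition was scored at 1 μM compound in duplicate, using supernatant TRAP activity read at 550 nm with an acid phosphatase kit.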

Assay [5] relates to CSF-1-dependent M-NFS-60 mouse myeloid leukemia cell. Put plainly: M-NFS-60 cell proliferation assay (CellTiter-96). It counts as cell-based. The following applies: Cytotoxicity, M-NFS-60 cells, 72 hours. The method in brief:
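Growth inhibition was measured as absorbance at 490 nm after 4 h with CellTiter 96 AQueous One reagent. Beforehand, M-NFS-60 cells (2000/well, CSF-1-dependent) were treated with a compound dilution series for 72 h following overnight plating at 37 °C, 5% CO2.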

The structures appear in SMILES notation.

Sequence of FLT3 kinase (P36888 27-993): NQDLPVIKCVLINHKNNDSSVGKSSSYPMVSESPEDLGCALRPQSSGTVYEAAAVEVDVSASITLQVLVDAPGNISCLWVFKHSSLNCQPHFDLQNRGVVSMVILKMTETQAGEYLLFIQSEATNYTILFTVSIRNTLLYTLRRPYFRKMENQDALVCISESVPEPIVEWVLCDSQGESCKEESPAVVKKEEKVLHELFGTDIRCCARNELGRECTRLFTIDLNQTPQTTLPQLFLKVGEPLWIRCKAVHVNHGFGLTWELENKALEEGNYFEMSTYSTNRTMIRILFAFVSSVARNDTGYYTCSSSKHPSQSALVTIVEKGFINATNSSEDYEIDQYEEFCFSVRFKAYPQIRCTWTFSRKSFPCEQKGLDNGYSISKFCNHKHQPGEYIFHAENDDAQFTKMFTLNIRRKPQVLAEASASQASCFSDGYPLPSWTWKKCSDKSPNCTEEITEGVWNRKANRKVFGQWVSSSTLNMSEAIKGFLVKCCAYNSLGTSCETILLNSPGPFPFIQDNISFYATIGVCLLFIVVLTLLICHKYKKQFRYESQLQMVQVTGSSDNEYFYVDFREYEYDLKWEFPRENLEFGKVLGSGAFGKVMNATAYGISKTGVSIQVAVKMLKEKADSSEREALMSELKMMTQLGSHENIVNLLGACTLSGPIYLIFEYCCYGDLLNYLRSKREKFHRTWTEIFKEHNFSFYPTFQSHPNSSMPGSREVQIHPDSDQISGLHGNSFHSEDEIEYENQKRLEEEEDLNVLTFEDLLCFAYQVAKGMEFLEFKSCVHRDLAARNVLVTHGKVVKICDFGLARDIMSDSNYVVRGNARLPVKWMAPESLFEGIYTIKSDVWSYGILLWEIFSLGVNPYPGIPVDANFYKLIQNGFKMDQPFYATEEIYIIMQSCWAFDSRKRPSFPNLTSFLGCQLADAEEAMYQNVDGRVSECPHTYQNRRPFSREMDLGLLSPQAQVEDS
Sequence of PDGFRβ kinase (P09619 33-1106): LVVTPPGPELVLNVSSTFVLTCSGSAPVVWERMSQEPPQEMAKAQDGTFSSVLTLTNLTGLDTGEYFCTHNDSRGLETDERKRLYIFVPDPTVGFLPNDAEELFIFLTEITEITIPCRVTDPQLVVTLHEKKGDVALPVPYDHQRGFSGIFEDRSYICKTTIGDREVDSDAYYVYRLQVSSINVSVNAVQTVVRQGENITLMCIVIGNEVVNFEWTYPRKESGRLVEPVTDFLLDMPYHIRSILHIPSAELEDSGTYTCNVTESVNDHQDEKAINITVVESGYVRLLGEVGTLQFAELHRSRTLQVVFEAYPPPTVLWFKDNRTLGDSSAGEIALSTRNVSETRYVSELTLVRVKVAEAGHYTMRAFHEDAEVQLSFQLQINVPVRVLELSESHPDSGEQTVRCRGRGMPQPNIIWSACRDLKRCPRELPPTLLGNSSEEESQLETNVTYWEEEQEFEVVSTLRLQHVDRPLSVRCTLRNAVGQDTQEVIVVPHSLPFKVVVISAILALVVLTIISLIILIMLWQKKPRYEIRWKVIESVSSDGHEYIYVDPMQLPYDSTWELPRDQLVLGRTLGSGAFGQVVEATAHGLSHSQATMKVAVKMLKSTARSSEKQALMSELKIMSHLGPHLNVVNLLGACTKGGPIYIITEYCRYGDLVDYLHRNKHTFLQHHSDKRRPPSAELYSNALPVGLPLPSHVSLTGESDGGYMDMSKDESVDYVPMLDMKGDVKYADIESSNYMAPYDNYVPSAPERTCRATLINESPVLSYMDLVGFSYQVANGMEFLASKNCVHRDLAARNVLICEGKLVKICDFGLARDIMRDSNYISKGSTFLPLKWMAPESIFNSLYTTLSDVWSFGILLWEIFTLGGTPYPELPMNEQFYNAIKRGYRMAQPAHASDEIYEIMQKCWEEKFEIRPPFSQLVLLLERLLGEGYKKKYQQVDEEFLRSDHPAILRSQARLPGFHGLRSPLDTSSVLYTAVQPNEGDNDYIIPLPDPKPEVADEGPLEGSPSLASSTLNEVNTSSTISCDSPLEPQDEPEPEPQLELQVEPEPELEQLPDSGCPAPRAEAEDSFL

As a reminder, the IC50 is the concentration needed to halve the response being measured. A high value points to a need for much substance. By inhibition is commonly meant the drop in the measured response relative to a control, in per cent. `COc1ccc(COc2ccc(Nc3ccc4ncc(N5CCC5)nc4c3C#N)cc2OC)cc1` [Example 83, 3-(azetidin-1-yl)-6-((3-methoxy-4-((4-methoxybenzyl)oxy)phenyl)amino)quinoxaline-5-carbonitrile]: the IC50 was above 1000 nM on FLT3 kinase; above 10000 nM in [1]; above 1000 nM at PDGFRβ kinase; below 100 nM against CSF-1R kinase; below 300 nM in assay [2]; below 100 nM against c-KIT kinase. The IC50 in assay [3] was above 10000 nM; in [5], below 300 nM. In assay [4], the inhibition at 1 µM was above 50%.
Take `COc1cc(Nc2ccc3ncc(N4CCC(N(C)C)CC4)nc3c2C#N)ccc1OCc1cccc(C#N)c1` [Example 84, 6-((4-((3-cyanobenzyl)oxy)-3-methoxyphenyl)amino)-3-(4-(dimethylamino)piperidin-1-yl)quinoxaline-5-carbonitrile]: the IC50 is above 1000 nM on FLT3 kinase; 1000 to 10000 nM in [1]; above 1000 nM at PDGFRβ kinase; below 100 nM on CSF-1R kinase; 300 to 1000 nM in assay [2]; below 100 nM against c-KIT kinase. Besides, the IC50 in [3] is 1000 to 10000 nM; in assay [5], below 300 nM. Besides, the inhibition at 1 µM in assay [4] is above 50%.
As to `COc1ccc(COc2ccc(Nc3ccc4ncc(N5CCC(N(C)C)CC5)nc4c3C#N)cc2OC)cc1F` [Example 85, 3-(4-(dimethylamino)piperidin-1-yl)-6-((4-((3-fluoro-4-methoxy-benzyl)oxy)-3-methoxyphenyl)amino)quinoxaline-5-carbonitrile], the IC50 against FLT3 kinase is above 1000 nM; in [1], 1000 to 10000 nM; at PDGFRβ kinase, above 1000 nM; against CSF-1R kinase, below 100 nM; in assay [2] it was below 300 nM; at c-KIT kinase it was below 100 nM. The IC50 is 1000 to 10000 nM in assay [3] and below 300 nM in assay [5]. The inhibition at 1 µM in assay [4] is above 50%.
Regarding `COc1ccc(COc2ccc(Nc3ccc4ncc(N5CCC5)nc4c3C#N)cc2OC)cn1` [Example 86, 3-(azetidin-1-yl)-6-((3-methoxy-4-((6-methoxpyridin-3-yl)methoxy)phenyl)amino)quinoxaline-5-carbonitrile], the IC50 against FLT3 kinase is above 1000 nM; in assay [1], above 10000 nM; at PDGFRβ kinase, above 1000 nM; at CSF-1R kinase, below 100 nM; in [2], 1000 to 10000 nM; on c-KIT kinase, 100 to 300 nM. Besides, the values for the half-maximal inhibitory concentration (IC50) in assay [3] and in assay [5] were above 10000 nM and below 300 nM, respectively. Further, the inhibition at 1 µM in [4] is above 50%.
For the molecule `COc1cc(Nc2ccc3ncc(N4CCC4)nc3c2C#N)ccc1OCc1cccc(C#N)c1` [Example 87, 3-(azetidin-1-yl)-6-((4-((3-cyanobenzyl)oxy)-3-methoxyphenyl)amino)quinoxaline-5-carbonitrile], the 50% inhibitory concentration (IC50) against FLT3 kinase is above 1000 nM; in assay [1] it was above 10000 nM; at PDGFRβ kinase it was above 1000 nM; on CSF-1R kinase it was below 100 nM; in [2] it was 1000 to 10000 nM; on c-KIT kinase, 100 to 300 nM. For the same molecule, the IC50 is above 10000 nM in assay [3] and 300 to 1000 nM in [5]. The inhibition at 1 µM in [4] is above 50%.
For `COc1cc(Nc2ccc3ncc(N4CCOCC4)nc3c2C#N)ccc1OCc1ccccc1` [Example 88, 6-((4-(benzyloxy)-3-methoxyphenyl)amino)-3-morpholinoquinoxaline-5-carbonitrile], the IC50 is above 1000 nM against FLT3 kinase; 1000 to 10000 nM in [1]; above 1000 nM against PDGFRβ kinase; below 100 nM at CSF-1R kinase; 300 to 1000 nM in assay [2]; below 100 nM on c-KIT kinase. For the same molecule, the IC50 was above 10000 nM in assay [3] and below 300 nM in assay [5]. Also, in assay [4], the inhibition at 1 µM was above 50%.
Regarding `COc1cc(Nc2ccc3ncc(N4CCC(N(C)C)CC4)nc3c2C#N)ccc1OCc1cccc(F)c1` [Example 89, 3-(4-(dimethylamino)piperidin-1-yl)-6-((4-((3-fluorobenzyl)oxy)-3-methoxyphenyl)amino)quinoxaline-5-carbonitrile], the IC50 at FLT3 kinase is above 1000 nM; in [1], 1000 to 10000 nM; on PDGFRβ kinase, above 1000 nM; at CSF-1R kinase, below 100 nM; in [2], 1000 to 10000 nM; against c-KIT kinase, below 100 nM. Besides, the IC50 in [3] was 1000 to 10000 nM; in assay [5], below 300 nM. Further, the inhibition at 1 µM in assay [4] is above 50%.
For `COc1ccc(COc2ccc(Nc3ccc4ncc(N5CCNCC5)nc4c3C#N)cc2OC)cc1` [Example 90, 6-((3-methoxy-4-((4-methoxybenzyl)oxy)phenyl)amino)-3-(piperazin-1-yl)quinoxaline-5-carbonitrile], the IC50 against FLT3 kinase is above 1000 nM; in [1], above 10000 nM; at PDGFRβ kinase it was above 1000 nM; against CSF-1R kinase, below 100 nM; in [2], 300 to 1000 nM; against c-KIT kinase, below 100 nM. Moreover, the IC50 in assay [3] was above 10000 nM; in [5], below 300 nM. Moreover, the inhibition at 1 µM in assay [4] is above 50%.
`COc1cc(Nc2ccc3ncc(N4CCOCC4)nc3c2C#N)ccc1OCc1cccc(F)c1` [Example 91, 6-((4-((3-fluorobenzyl)oxy)-3-methoxyphenyl)amino)-3-morpholinoquinoxaline-5-carbonitrile]: the IC50 at FLT3 kinase was above 1000 nM; in assay [1], 1000 to 10000 nM; on PDGFRβ kinase, above 1000 nM; against CSF-1R kinase, below 100 nM; in assay [2], 1000 to 10000 nM; at c-KIT kinase it was 100 to 300 nM. The results for the IC50 in [3] and in assay [5] were above 10000 nM and 300 to 1000 nM, respectively. The inhibition at 1 µM in assay [4] is above 50%.
Turning to `COc1ccc(COc2ccc(Nc3ccc4ncc(N5CCOCC5)nc4c3C#N)cc2OC)cc1F` [Example 93, 6-((4-((3-fluoro-4-methoxybenzyl)oxy)-3-methoxy-phenyl)amino)-3-morpholinoquinoxaline-5-carbonitrile], the IC50 on FLT3 kinase is above 1000 nM; in assay [1] it was above 10000 nM; against PDGFRβ kinase it was above 1000 nM; on CSF-1R kinase, below 100 nM; in [2] it was below 300 nM; at c-KIT kinase, below 100 nM. Moreover, the IC50 in assay [3] is above 10000 nM; in assay [5], below 300 nM. In [4], the inhibition at 1 µM was above 50%.
In the case of `COc1ccc(COc2ccc(Nc3ccc4ncc(N5CCOCC5)nc4c3C#N)cc2OC)c(F)c1` [Example 94, 6-((4-((2-fluoro-4-methoxybenzyl)oxy)-3-methoxyphenyl)amino)-3-morpholinoquinoxaline-5-carbonitrile], the IC50 against FLT3 kinase was above 1000 nM; in [1], above 10000 nM; at PDGFRβ kinase, above 1000 nM; against CSF-1R kinase it was below 100 nM; in assay [2], 300 to 1000 nM; against c-KIT kinase, below 100 nM. Besides, the IC50 in [3] is above 10000 nM; in assay [5] it was below 300 nM. Besides, the inhibition at 1 µM in assay [4] is above 50%.
For the molecule `COc1ccc(COc2ccc(Nc3ccc4ncc(N5CCN(C)CC5)nc4c3C#N)cc2OC)cn1` [Example 95, 6-((3-methoxy-4-((6-methoxypyridin-3-yl)methoxy)phenyl)amino)-3-(4-methylpiperazin-1-yl)quinoxaline-5-carbonitrile], the IC50 was above 1000 nM against FLT3 kinase; 1000 to 10000 nM in assay [1]; above 1000 nM on PDGFRβ kinase; below 100 nM on CSF-1R kinase; 300 to 1000 nM in assay [2]; 100 to 300 nM against c-KIT kinase. Also, the IC50 was 1000 to 10000 nM in [3] and below 300 nM in assay [5]. In [4], the inhibition at 1 µM was above 50%.
